Experimental data taken from publication PMC9121441 (Molecular pharmaceutics, 2019).
Where two headings read alike, the source gives them in different places.

Columns and labels:
CYP2B6 [1] = target: T1, CYP2B6 (Homo sapiens, UniProt P20813); assay: Ketamine demethylation measured by formaldehyde formation; details: product formaldehyde
T1 sequence (P20813 1-491): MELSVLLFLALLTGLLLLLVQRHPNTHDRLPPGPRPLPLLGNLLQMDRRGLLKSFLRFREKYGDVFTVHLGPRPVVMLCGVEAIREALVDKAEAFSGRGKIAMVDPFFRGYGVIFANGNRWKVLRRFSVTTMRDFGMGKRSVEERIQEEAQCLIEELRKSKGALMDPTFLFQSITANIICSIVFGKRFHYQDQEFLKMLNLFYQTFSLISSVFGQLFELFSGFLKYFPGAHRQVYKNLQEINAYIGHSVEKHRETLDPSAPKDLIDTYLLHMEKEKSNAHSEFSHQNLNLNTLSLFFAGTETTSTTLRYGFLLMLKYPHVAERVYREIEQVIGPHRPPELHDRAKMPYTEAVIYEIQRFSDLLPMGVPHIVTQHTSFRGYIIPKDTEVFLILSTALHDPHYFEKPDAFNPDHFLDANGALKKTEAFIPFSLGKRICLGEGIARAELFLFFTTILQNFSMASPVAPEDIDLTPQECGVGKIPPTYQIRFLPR

CYP2B6 [2] = target: T1, CYP2B6; assay: Ketamine demethylation measured by norketamine formation; assay type: in vitro ADME; details: for Km at 10 min: human, pH 7.4, Km
CYP2B6 [3] = target: T1, CYP2B6; details: human liver microsomes; cited from earlier work
[4] = oral ketamine, first-pass metabolism; cited from earlier work
[5] = N-demethylation, product R-norketamine
[6] = N-demethylation, product S-norketamine

Structure (SMILES) | Vmax (CYP2B6 [1]; N-demethylation) | Clint (CYP2B6 [1]; in vitro intrinsic clearance Vmax/Km) | Km (CYP2B6 [2]; [5]) | Vmax (CYP2B6 [2]; [5]) | Clint (CYP2B6 [2]; Vmax/Km, product R-norketamine) | Km (CYP2B6 [3]) | Km at 10 min (CYP2B6 [2]; [6]) | oral bioavailability [4] | Km at 10 min (CYP2B6 [2]; [5])
CN[C@@]1(c2ccccc2Cl)CCCCC1=O [R-ketamine] | 92 ± 2 pmol・min^−1・pmol CYP^−1 | 6.2 ml・min^–1・nmol P450^–1 | 11 ± 1 µM | 65 ± 1 pmol・min^−1・pmol CYP^−1 | 5.7 ml・min^–1・nmol P450^–1 | – | – | – | –
CN[C@]1(c2ccccc2Cl)CCCCC1=O [S-ketamine] | – | – | – | – | – | 44 µM | 10 ± 1 µM | – | –
CNC1(c2ccccc2Cl)CCCCC1=O (stereo not shown) [ketamine, 2-(2-chlorophenyl)-2-(methylamino)cyclohexan-1-one] | – | – | – | – | – | – | 5 ± 1 µM | 15% | 4 ± 1 µM
